According to PMC11538350, “Synthetic studies on the tetrasubstituted D-ring of cystobactamids lead to potent terephthalic acid antibiotics” (Communications Chemistry, 2024):
≈ marks a conversion by molar mass, not a printed value.

System: not listed separately
Assay: metabolic stability assay, mouse microsomes
Conditions: Table S4

SMILES | T1/2 MICROSOMES (M) [h]
C#CC[C@H](NC(=O)c1ccc(NC(=O)c2ccc(C#N)cc2)cc1)C(=O)Nc1ccc(C(=O)Nc2ccc(C(=O)Nc3ccc(C(=O)O)cc3)c(N)c2OC(C)C)cc1 [Cmpd. 7] | > 1

System: K. pneum. KP10581
Assay: MIC assay
Format: cell-based
Conditions: Klebsiella pneumoniae; read-out: MIC K. pneum. KP10581
Description: (§1) All cystobactamids were evaluated in MIC-assays on a panel of representative ESKAPE strains with focus on A. baumannii (Tables 1 and 2). Compared to our previous work[10],[17],[18], we specifically included more challenging test strains with known resistances against gyrase inhibitors.
(§2) 2.1 Materials and Methods
(§3) Strains were cultivated according to standard procedures. Bacterial cryo-cultures were
(§4) resuspended into fresh MHBII (cation adjusted) medium. The resuspension
(§5) assay plate (Corning, #3788).
(§6) in parallel as a positive control. […]

SMILES | MIC [µg/mL]
C#CC[C@H](NC(=O)c1ccc(NC(=O)c2ccc(C#N)cc2)cc1)C(=O)Nc1ccc(C(=O)Nc2ccc(C(=O)Nc3ccc(C(=O)O)cc3)c(N)c2OC(C)C)cc1 [Cmpd. 7] | > 64

System: S. aur. ATCC-29213
Assay: MIC assay
Format: cell-based
Conditions: Staphylococcus aureus, ATCC29213; reference strain; read-out: MIC S. aur. ATCC-29213
Description: as §1, §2, §3, §4, §5, §6

SMILES | MIC [µg/mL]
C#CC[C@H](NC(=O)c1ccc(NC(=O)c2ccc(C#N)cc2)cc1)C(=O)Nc1ccc(C(=O)Nc2ccc(C(=O)Nc3ccc(C(=O)O)cc3)c(N)c2OC(C)C)cc1 [Cmpd. 7] | > 64

System: S. pneum. DSM-11865 (PRSP)
Assay: MIC assay
Format: cell-based
Conditions: Streptococcus pneumoniae; read-out: MIC S. pneum. DSM-11865 (PRSP)
Description: as §1, §2, §3, §4, §5, §6

SMILES | MIC [µg/mL]
C#CC[C@H](NC(=O)c1ccc(NC(=O)c2ccc(C#N)cc2)cc1)C(=O)Nc1ccc(C(=O)Nc2ccc(C(=O)Nc3ccc(C(=O)O)cc3)c(N)c2OC(C)C)cc1 [Cmpd. 7] | 0.2 (≈ 0.253 µM)

System: E. cloacae ATCC BAA-2468
Assay: MIC assay
Format: cell-based
Conditions: Enterobacter cloacae, ATCCBAA2468; read-out: MIC E. cloacae ATCC BAA-2468
Description: as §1, §2, §3, §4, §5, §6

SMILES | MIC [µg/mL]
C#CC[C@H](NC(=O)c1ccc(NC(=O)c2ccc(C#N)cc2)cc1)C(=O)Nc1ccc(C(=O)Nc2ccc(C(=O)Nc3ccc(C(=O)O)cc3)c(N)c2OC(C)C)cc1 [Cmpd. 7] | > 64

System: K. pneum. R-1525
Assay: MIC assay
Format: cell-based
Conditions: Klebsiella pneumoniae; read-out: MIC K. pneum. R-1525
Description: as §1, §2, §3, §4, §5, §6

SMILES | MIC [µg/mL]
C#CC[C@H](NC(=O)c1ccc(NC(=O)c2ccc(C#N)cc2)cc1)C(=O)Nc1ccc(C(=O)Nc2ccc(C(=O)Nc3ccc(C(=O)O)cc3)c(N)c2OC(C)C)cc1 [Cmpd. 7] | > 64

System: E. coli ATCC-25922
Assay: MIC assay
Format: cell-based
Conditions: Escherichia coli, ATCC25922; reference strain; read-out: MIC E. coli ATCC-25922
Description: as §1, §2, §3, §4, §5, §6

SMILES | MIC [µg/mL]
C#CC[C@H](NC(=O)c1ccc(NC(=O)c2ccc(C#N)cc2)cc1)C(=O)Nc1ccc(C(=O)Nc2ccc(C(=O)Nc3ccc(C(=O)O)cc3)c(N)c2OC(C)C)cc1 [Cmpd. 7] | 0.005 (≈ 0.00631 µM)

System: A. baum. R835
Assay: MIC assay
Format: cell-based
Conditions: Acinetobacter baumannii; read-out: MIC A. baum. R835
Description: as §1, §2, §3, §4, §5, §6

SMILES | MIC [µg/mL]
C#CC[C@H](NC(=O)c1ccc(NC(=O)c2ccc(C#N)cc2)cc1)C(=O)Nc1ccc(C(=O)Nc2ccc(C(=O)Nc3ccc(C(=O)O)cc3)c(N)c2OC(C)C)cc1 [Cmpd. 7] | > 64

System: E. coli LM705
Assay: MIC assay
Format: cell-based
Conditions: Escherichia coli, LM705, read-out: MIC E. coli LM705
Description: as §1, §2, §3, §4, §5, §6

SMILES | MIC [µg/mL]
C#CC[C@H](NC(=O)c1ccc(NC(=O)c2ccc(C#N)cc2)cc1)C(=O)Nc1ccc(C(=O)Nc2ccc(C(=O)Nc3ccc(C(=O)O)cc3)c(N)c2OC(C)C)cc1 [Cmpd. 7] | > 64

System: A. baum. ATCC BAA-1710
Assay: MIC assay
Format: cell-based
Conditions: Acinetobacter baumannii, ATCCBAA1710; read-out: MIC A. baum. ATCC BAA-1710
Description: as §1, §2, §3, §4, §5, §6

SMILES | MIC [µg/mL]
C#CC[C@H](NC(=O)c1ccc(NC(=O)c2ccc(C#N)cc2)cc1)C(=O)Nc1ccc(C(=O)Nc2ccc(C(=O)Nc3ccc(C(=O)O)cc3)c(N)c2OC(C)C)cc1 [Cmpd. 7] | > 64

System: A. baum. CIP-107292
Assay: MIC assay
Format: cell-based
Conditions: Acinetobacter baumannii, CIP107292; read-out: MIC A. baum. CIP-107292
Description: as §1, §2, §3, §4, §5, §6

SMILES | MIC [µg/mL]
C#CC[C@H](NC(=O)c1ccc(NC(=O)c2ccc(C#N)cc2)cc1)C(=O)Nc1ccc(C(=O)Nc2ccc(C(=O)Nc3ccc(C(=O)O)cc3)c(N)c2OC(C)C)cc1 [Cmpd. 7] | > 64

System: not given
Assay: not given
Conditions: human plasma
Description: 2.1 Materials and Methods […]
Determination of in vitro ADME properties
7, 8, 11 and 42. All samples were analysed via HPLC -MS/MS.
HPLC-MS/MS analysis of cystobactamids
AB Sciex QTrap 6500plus mass spectrometer. LC conditions were as follows: column:
Samples were run under acidic
For plasma stability experiments, samples were procured from commercial sources.
Human plasma was obtained from Antibodies-online (catalog no. ABIN5706569), and mouse plasma was obtained from Tebubio (catalog no. D408-04-0050).
The methods were performed in accordance with relevant guidelines and regulations and approved by the Helmholtz Centre for Infection Research. […]

SMILES | T1/2 PLASMA (H) [h]
C#CC[C@H](NC(=O)c1ccc(NC(=O)c2ccc(C#N)cc2)cc1)C(=O)Nc1ccc(C(=O)Nc2ccc(C(=O)Nc3ccc(C(=O)O)cc3)c(N)c2OC(C)C)cc1 [Cmpd. 7] | > 4

Same assay, conditions: mouse plasma

SMILES | T1/2 PLASMA (M) [h]
C#CC[C@H](NC(=O)c1ccc(NC(=O)c2ccc(C#N)cc2)cc1)C(=O)Nc1ccc(C(=O)Nc2ccc(C(=O)Nc3ccc(C(=O)O)cc3)c(N)c2OC(C)C)cc1 [Cmpd. 7] | > 4

System: not listed separately
Assay: metabolic stability assay, human microsomes
Conditions: second microsome column of Table S4, head prints (M); mouse and human microsomes

SMILES | T1/2 MICROSOMES (M) [h]
C#CC[C@H](NC(=O)c1ccc(NC(=O)c2ccc(C#N)cc2)cc1)C(=O)Nc1ccc(C(=O)Nc2ccc(C(=O)Nc3ccc(C(=O)O)cc3)c(N)c2OC(C)C)cc1 [Cmpd. 7] | > 1

System: E. faec. DSM-17050 (VRE)
Assay: MIC assay
Format: cell-based, Enterococcus faecium
Conditions: Enterococcus; read-out: MIC E. faec. DSM-17050 (VRE)
Description: as §1, §2, §3, §4, §5, §6

SMILES | MIC [µg/mL]
C#CC[C@H](NC(=O)c1ccc(NC(=O)c2ccc(C#N)cc2)cc1)C(=O)Nc1ccc(C(=O)Nc2ccc(C(=O)Nc3ccc(C(=O)O)cc3)c(N)c2OC(C)C)cc1 [Cmpd. 7] | > 64

System: E. ae. CIP 106754
Assay: MIC assay
Format: cell-based, Enterobacter aerogenes
Conditions: Klebsiella aerogenes, CIP106754, read-out: MIC E. ae. CIP 106754
Description: as §1, §2, §3, §4, §5, §6

SMILES | MIC [µg/mL]
C#CC[C@H](NC(=O)c1ccc(NC(=O)c2ccc(C#N)cc2)cc1)C(=O)Nc1ccc(C(=O)Nc2ccc(C(=O)Nc3ccc(C(=O)O)cc3)c(N)c2OC(C)C)cc1 [Cmpd. 7] | > 64
